Entries after “also recorded” stand apart in the source; their conditions may differ.
Assay: Ocular versus oral delivery of valdecoxib nanoparticle suspensions; drug concentration in eye tissues and plasma by LC-MS
Assay type: in vivo, New Zealand white rabbits
Settings: rabbit
Procedure: Oral and ophthalmic suspensions of valdecoxib nanoparticles were prepared. […] The two carrageenan excipients are both ι-carrageenans with slightly different chemical and physical properties.
Eighteen male New Zealand white rabbits weighing from 1.8-2.5 kg were provided as test animals and divided into three lots containing six rabbits each.
Selected eye tissues, aqueous humor, bulbar conjunctiva, cornea, eyelids, vitreous humor and sclera, were excised at the time of sacrifice, weighed directly into tared vials, solubilized and/or diluted as necessary, and analyzed by HPLC-MS. Just prior to sacrifice, 0.5 mL of a blood sample was collected from the ear central artery via a syringe, placed into a K2-EDTA vacutainer, mixed gently and stored on ice up to one hour prior to centrifuging to separate the plasma. The plasma was stored at −10° C. or colder until analysis.

[1] = four hours after administration, FIGS. 2 and 3

With `Cc1onc(-c2ccccc2)c1-c1ccc(S(N)(=O)=O)cc1` [valdecoxib, 4-[5-methyl-3-phenylisoxazol-4-yl]-benzenesulfonamide] the “delivery of the drug to the eye (conjunctiva, cornea, aqueous humor concentration), ocular versus oral administration” value [1] was “much more effective in delivering the drug to the eye than oral administration”, the “systemic (plasma) concentration of the drug, ocular versus oral administration” value [1] was “avoids the high systemic (plasma) concentration” and the “concentration of the drug in the conjunctiva versus time, ocular versus oral delivery” value (single ocular dose 25 μL ophthalmic suspension per eye (about 0.1 mg) vs oral 0.5 mg/kg, 0.5, 2 and 4 hours, FIG. 1, 0.5 mg/kg) was “much higher initial concentration; also recorded: maintained this higher concentration over time”.

Reference: patent US20020035264A1, “Ophthalmic formulation of a selective cyclooxygenase-2 inhibitory drug” (priority 2000, published 2002)
